Assay results published in paper PMC10053440, “Semi-Synthesis and Biological Evaluation of 25(R)-26-Acetoxy-3β,5α-Dihydroxycholest-6-One” (Marine Drugs, 2023).
Values after ≈ are worked out from the molar mass of the structure shown.

Assays:
[1] = tested on: respiratory syncytial virus (RSV); test: Anti-RSV activity assay (RT-qPCR); assay type: cell-based; details: human respiratory syncytial virus, HEp-2 cells, mean ± SEM, read-out: Inhibition rate (%) of RSV replication
From the text: Remdesivir was selected and evaluated as a positive control.

[2] = tested on: human leukemia cell line K-562; details: cited from earlier work
[3] = tested on: HCT 116 (human colorectal cancer cell); test: CCK-8 anti-proliferation assay, HCT 116; assay type: cell-based; details: at 20 µM, 48 h, mean ± SEM, read-out: Inhibition Rate (%)
Protocol: (§1) One concentration was set for each sample during preliminary screening and three multiple holes were set for each concentration. Eight concentration gradients were set for each sample for IC50 determination and three multiple holes were set for each concentration. […] The absorbance was measured at 450 nm with an enzyme labeling instrument and the original data and results were recorded. […] Doxorubicin was used as a positive control. All the cancer cell lines were obtained from Qingdao AC biotechnology Co., LTD, Qingdao, China.

[4] = tested on: TE-1 (human esophageal cancer cell); test: CCK-8 anti-proliferation assay, TE-1; assay type: cell-based; details: at 20 µM, 48 h, mean ± SEM, read-out: Inhibition Rate (%)
Protocol: as §1

[5] = tested on: 786-O (human renal cancer cell); test: CCK-8 anti-proliferation assay, 786-O; assay type: cell-based; details: 786-0, at 20 µM, 48 h, mean ± SEM, read-out: Inhibition Rate (%)
Protocol: as §1

[6] = tested on: A549 (human lung adenocarcinoma cell); test: CCK-8 anti-proliferation assay, A549; assay type: cell-based; details: A549, 48 h, at 20 µM, mean ± SEM, read-out: Inhibition Rate (%)
Protocol: as §1

[7] = tested on: GBC-SD (human gallbladder carcinoma cell); test: CCK-8 anti-proliferation assay, GBC-SD; assay type: cell-based; details: at 20 µM, 48 h, mean ± SEM, read-out: Inhibition Rate (%)
Protocol: as §1

[8] = tested on: MKN-45 (human gastric cancer cell); test: CCK-8 anti-proliferation assay, MKN-45; assay type: cell-based; details: at 20 µM, 48 h, mean ± SEM, read-out: Inhibition Rate (%)
Protocol: as §1

[9] = tested on: 5637 (HTB-9) (human bladder cancer cell); test: CCK-8 anti-proliferation assay, 5637 (HTB-9); assay type: cell-based
Protocol: as §1

[10] = tested on: A-673 (Ewing sarcoma); test: CCK-8 anti-proliferation assay, A-673; assay type: cell-based; details: Homo sapiens, A673, at 20 µM, 48 h, mean ± SEM, read-out: Inhibition Rate (%)
Protocol: as §1

[11] = tested on: SF126 (human glioblastoma cell); test: CCK-8 anti-proliferation assay, SF126; assay type: cell-based; details: SF-126, at 20 µM, 48 h, mean ± SEM, read-out: Inhibition Rate (%)
Protocol: as §1

[12] = tested on: DU145 (human prostate carcinoma cell); test: CCK-8 anti-proliferation assay, DU145; assay type: cell-based; details: DU-145, at 20 µM, 48 h, mean ± SEM, read-out: Inhibition Rate (%)
Protocol: as §1

[13] = tested on: MCF7 (human breast cancer cell); test: CCK-8 anti-proliferation assay, MCF7; assay type: cell-based; details: at 20 µM, 48 h, mean ± SEM, read-out: Inhibition Rate (%)
Protocol: as §1

[14] = tested on: CAL-62 (human thyroid anaplastic carcinoma cell); test: CCK-8 anti-proliferation assay, CAL-62; assay type: cell-based; details: at 20 µM, 48 h, mean ± SEM, read-out: Inhibition Rate (%)
Protocol: as §1

[15] = tested on: L-02 (human hepatocyte cell); test: CCK-8 anti-proliferation assay, L-02; assay type: cell-based; details: L-02 normal liver cells, at 20 µM, 48 h, mean ± SEM, read-out: Inhibition Rate (%)
Protocol: as §1

[16] = tested on: A-375 (human melanoma cell); test: CCK-8 anti-proliferation assay, A-375; assay type: cell-based; details: at 20 µM, 48 h, mean ± SEM, read-out: Inhibition Rate (%)
Protocol: as §1

[17] = tested on: HeLa (human cervical cancer cell); test: CCK-8 anti-proliferation assay, HeLa; assay type: cell-based; details: at 20 µM, 48 h, mean ± SEM, read-out: Inhibition Rate (%)
Protocol: as §1

[18] = tested on: 5637 (HTB-9) cells; test: Apoptosis assay, Annexin V-FITC/PI flow cytometry; assay type: cell-based, human; details: 48 h
Protocol: Next, the apoptosis study of compound ([…])-5 was investigated against 5637 (HTB-9) cells based on a standard flow cytometry technique and assessed by Annexin V-FITC/PI staining. […] The percent of apoptosis in cells was assayed according to the instructions (Vazyme, A211). 5637 (HTB-9) cells were seeded in 6-well plates at 2 × 10^5 cells/well overnight and treated with compound ([…])-5 at various concentrations for 48 h. Trypsinization of the cells occurred without EDTA and they were collected in tubes and suspended in 100 μL ice-cold 1 × binding buffer after being washed twice with PBS. Cells were stained with PI and FITC Annexin V for 10 min at room temperature following the instructions of the Annexin V FITC/PI kit (Vazyme Biotech, Nanjing, China). Next, 200 μL ice-cold 1 × binding buffer was added. The result was measured by flow cytometry (MoFlo XDP, Beckman, Pasadena, CA, USA). For each condition, a minimum of 10,000 cells were analyzed. Triplicate experiments were performed independently.

[19] = tested on: PATU8988T (human pancreatic cancer cell); test: CCK-8 anti-proliferation assay, PATU8988T; assay type: cell-based; details: PaTu 8988t, at 20 µM, 48 h, mean ± SEM, read-out: Inhibition Rate (%)
Protocol: as §1

[20] = tested on: HOS (human osteosarcoma cell); test: CCK-8 anti-proliferation assay, HOS; assay type: cell-based; details: at 20 µM, 48 h, mean ± SEM, read-out: Inhibition Rate (%)
Protocol: as §1

[21] = tested on: HepG2 (human liver carcinoma cell); test: CCK-8 anti-proliferation assay, HepG2; assay type: cell-based
Protocol: as §1

[22] = tested on: K-562 (human myeloid leukemia cell); test: CCK-8 anti-proliferation assay, K-562; assay type: cell-based; details: 48 h, mean ± SEM
Protocol: as §1

[23] = tested on: 293T (human embryonic kidney cell); test: CCK-8 anti-proliferation assay, 293T; assay type: cell-based; details: HEK-293T, at 20 µM, 48 h, mean ± SEM, read-out: Inhibition Rate (%)
Protocol: as §1

CC(=O)OCC(C)CCC[C@@H](C)[C@H]1CC[C@H]2[C@@H]3CC(=O)[C@@]4(O)C[C@@H](O)CC[C@]4(C)[C@H]3CC[C@]12C (stereo partly drawn) [compound 5]
inhibition at 10 µM [1]: 18.3 ± 3.8% | LC50 [2]: 0.9 µg/mL (≈ 1.89 µM)

CC(=O)OC[C@H](C)CCC[C@@H](C)[C@H]1CC[C@H]2[C@@H]3CC(=O)[C@@]4(O)C[C@@H](O)CC[C@]4(C)[C@H]3CC[C@]12C [compound (25R)-5, (2R,6R)-6-((3S,5R,8S,9S,10R,13R,14S,17R)-3,5-Dihydroxy-10,13-Dimethyl-6-Oxohexadecahydro-1H-Cyclopenta[a]Phenanthren-17-yl)-2-Methylheptyl Acetate]
inhibition at 20 µM [3]: 59.3 ± 3.8% | inhibition at 20 µM [4]: 29.5 ± 2.2% | inhibition at 20 µM [5]: 65.3 ± 0.5% | inhibition at 20 µM [6]: ≤ 50% | inhibition at 20 µM [7]: 28.1 ± 1.5% | inhibition at 20 µM [8]: 61.1 ± 1.4% | inhibition at 20 µM ([9]; 5637 (HTB-9), at 20 µM, 48 h, mean ± SEM, read-out: Inhibition Rate (%)): 64.7 ± 3.4% | IC50 ([9]; CCK-8, 48 h, read-out: IC50 against 5637 (HTB-9) cells): 4.8 µM | inhibition at 20 µM [10]: 49.4 ± 1.4% | inhibition at 20 µM [11]: 28.1 ± 0.5% | inhibition at 10 µM [1]: 29.4 ± 7.1% | inhibition at 20 µM [12]: 12.2 ± 2% | inhibition at 20 µM [13]: 19.3 ± 2.1% | inhibition at 20 µM [14]: 18.2 ± 1.9% | inhibition at 20 µM [15]: -4.9 ± 3.4% | inhibition at 20 µM [16]: 76.3 ± 1.7% | inhibition at 20 µM [17]: 22.7 ± 1.2% | induction of apoptosis (early-stage Annexin V-FITC+/PI- and late-stage Annexin V-FITC+/PI+) [18]: induced apoptotic cell death in a dose-dependent manner | inhibition at 20 µM [19]: 65.9 ± 4.2% | inhibition at 20 µM [20]: 22.2 ± 1.1% | IC50 ([21]; CCK-8, 48 h, read-out: IC50 against HepG2 cells): 15.5 µM | inhibition at 20 µM ([21]; at 20 µM, 48 h, mean ± SEM, read-out: Inhibition Rate (%)): 66.8 ± 2.1% | inhibition at 20 µM ([22]; Homo sapiens, K562, at 20 µM, read-out: Inhibition Rate (%)): 17.1 ± 2.8% | Inhibition Rate (%) ([22]; at 20 µM): weak inhibition activity | inhibition at 20 µM [23]: 26.2 ± 1.5%
